# Source: patent US10975033B2, “Methods for treating inflammation and hypertension with γ-ketoaldehyde skavengers” (Vanderbilt University, priority 2011, dated 2021)
# What was measured:
# [1] = Pharmacokinetics of salicylamine; type: in vivo
# COX enzymes = conditions: cited from earlier work
# [2] = tested on: cells exposed to a lethal concentration of the oxidant t-butylhydroperoxide; test: Protection of cells against a lethal concentration of t-butylhydroperoxide (FIG. 5); type: cell-based
# Excerpt: One example is shown in FIG. 5, where cells are exposed to a lethal concentration of the oxidant t-butylhydroperoxide. […] Accordingly, we suspected that the γ-KAs generated by the COX pathways would likely be very pro-inflammatory, which might explain the underlying mechanism by which NSAID's exert some their anti-inflammatory effects.
# [3] = Reactivity of scavenger with γ-KAs relative to lysine; conditions: more reactive than lysine
# Excerpt: Other embodiments of the present invention include the use of analogs of pyridoxamine that are less polar but retain the critical molecular structure of this molecule responsible for intercepting γ-KAs^49. One example is 2-hydroxy-benzylamine (salicylamine, SA) which is 980 times more reactive than lysine with γ-KAs.
# It is important to emphasize that the use of salicylamine is one example of the present invention. Other embodiments include compounds that intercept γ-KA scavengers on various biological processes, their analogs and salt forms thereof. Different non-limiting examples of compounds of the present invention are listed below, which intercept γ-KAs with varying degrees of hydrophilicity. Additionally, to solubilize the more hydrophobic compounds, they have been converted them to an acetate salt. These react with γ-KAs in vitro at a rate more than 2 orders of magnitude greater than the potency of the reaction of γ-KAs with the ε-amine of lysine^49. […] Included are analogs, salts, and pharmaceutical compositions comprising compounds that intercept γ-KA scavengers on various biological processes.
# [4] = tested on: carrageenin-induced paw edema; test: Carrageenin-induced paw edema rat model; type: in vivo; conditions: for mean reduction in edema: 3 hrs after injection of carrageenin, FIG. 7
# Excerpt: As indicated above, one embodiment of the present invention is the use of salicylamine to treat inflammation. […] The carrageenin-induced paw edema rat model has been probably the most utilized animal model to screen for potency of NSAIDs and other antiinflammatory compounds to inhibit inflammation for decades. For example, see Proc Soc Exp Biol Med 111:544 in 1962 by Winter C A et. al., entitled: “Carrageenin-induced edema of the hind paw of the rat as an assay for antiinflammatory drugs”. Importantly, it has been shown that this model is one of the most robust predictors of clinical potency of NSAIDs^54.
# Our initial experiments tested the ability of a single dose of salicylamine (200 mg/kg), administered intraperitoneally, to reduce paw edema at various time points. Carrageenan (100 μl of a 1% solution in saline) was injected into the hind right footpad. Footpad volume was measured in a water displacement plethysmometer before injection of carrageenin and at 2 hr, 3 hr, and 4 hr post-carrageenin. Edema was calculated as footpad volume change (ml) as a percentage of original paw volume for each individual animal.
# The efficacy an analog of salicylamine, 5-methyl-salicylamine, to inhibit carrageenin-induced paw edema was accessed at 3 hrs after injection of carrageenin at two doses, 200 and 100 mg/kg ip (FIG. 7).
# hAPO4 mice = test: Cognitive deficits in hAPO4 mouse model of human Alzheimer's disease; type: in vivo
# Excerpt: The present inventors have shown that levels of γ-KA adducts are increased in disease affected areas of whole brain tissue from patients with Alzheimer's disease. […] The present inventors accessed the ability of the γ-KA scavenger salicylamine to prevent the development of cognitive abnormalities in an animal model of human Alzheimer's disease, hAPO4 mice.
# [5] = tested on: neutrophil cell counts in lung bronchoalveolar lavage fluid; test: Neutrophil cell counts in lung bronchoalveolar lavage fluid of LPS-injected mice; type: in vivo; conditions: ip at 1 hr, 3 hrs, 5 hrs after LPS; determined 8 hrs after LPS; FIG. 11
# Procedure: An in vivo experiment was performed to explore whether treatment with salicylamine would down regulate the activity of NF-kB in animals injected with LPS. The animals we used were mice with a luciferase NF-kB reporter gene developed by Dr. Timothy Blackwell mentioned previously. LPS was injected into mice and salicylamine was injected intraperitoneally at 1 hr, 3 hrs, and 5 hrs after the LPS injection. Lung NF-kB luciferase assay and neutrophil cell counts in lung bronchoalveolar lavage fluid (BAL) were then determined 8 hrs after the LPS injection. There was a reduction in both (a) activity of NF-kB (FIG. 10) (b) and neutrophil cell counts (FIG. 11), both of which are indicative of a pronounced anti-inflammatory effect of salicylamine treatment in these animals.
# NF-κB = test: LPS-induced NF-κB expression in NF-κB reporter macrophages (luciferase reporter assay); type: cell-based; conditions: varying concentrations, FIG. 9
# Excerpt: The effect of γ-KAs and salicylamine on induction of NF-κB was explored using a novel luciferase reporter assay to quantitatively monitor the induction of expression of NF-κB both in vitro in cells and in vivo^55; 56. NF-κB is required for maximal induction of many cytokines which are thought to be important in the generation of the acute inflammatory responses^57. Accordingly, the downstream effects of an agent that suppresses the induction of NF-κB would be a reduction in the level of inflammation. The first question we asked was does exposure of cells to γ-KAs induce the expression of NF-κB using the luciferase reporter assay mentioned above. […] The abbreviation RLU in this figure stands for Relative Light Units that were measured by luciferase assay.
# Another embodiment of the present invention is treatment with varying concentrations of salicylamine (SA) would suppress lipopolysaccharide (LPS) induced expression of NF-κB in NF-κB reporter macrophages.
Structure (SMILES),plasma concentrations compared with tissue concentrations ([1]; in vivo),"half-life ([1]; plasma, read-out: half life (t1/2) in plasma)",inhibition of COX (cyclooxygenase) enzymes (COX enzymes),protection against cell death [2],reactivity with γ-KAs relative to lysine [3],"inhibition of carrageenin-induced paw edema ([4]; single dose 200 mg/kg intraperitoneally, 2 hr, 3 hr, 4 hr post-carrageenin, FIG. 6)","persistence of decrease in paw edema after injection of carrageenin ([4]; single intraperitoneal injection, 200 mg/kg)",prevention of development of cognitive deficits (hAPO4 mice),neutrophil cell counts in BAL [5],LPS induced expression of NF-κB (NF-κB),mean reduction in edema ([4]; 100 mg/kg ip),mean reduction in edema ([4]; 200 mg/kg ip)
"NCc1ccccc1O [salicylamine, 2-hydroxy-benzylamine]",lower than tissue concentrations,~1 h,"None of the compound listed below, including salicylamine, inhibit cyclooxygenase enzymes",almost completely protected against cell death,980 times,marked inhibition,at least 4 hrs,almost completely prevented,reduction,concentration dependent stepwise reduction,–,–
Cc1ccc(O)c(CN)c1 [5-methyl-salicylamine],–,–,–,–,–,–,–,–,–,–,29%,60%
